What is called IC50 is the concentration needed to halve the response being measured.

For this assay, the system named is H3K27 methylation in G401 cell. In words: ELISA (H3K27 methylation) assay. The format is cell-based. The settings on record: Homo sapiens, G-401; ELISA Qualified assay (H3K27 methylation); read-out: (c) IC50 (μM), ELISA Qualified. The source says:
ELISA (H3K27 Methylation) Assay
With `CN(C)Cc1ccc(-c2cnc(NCc3cccc4c3CCO4)n3cnnc23)cc1` [Example 11, N-((2,3-dihydrobenzofuran-4-yl)methyl)-8-(4-((dimethylamino)methyl)phenyl)-[1,2,4]triazolo[4,3-c]pyrimidin-5-amine], the IC50 was found to be 0.0144 µM. Under `CS(=O)(=O)c1ccc(-c2cnc(NCc3cccc4c3CCO4)n3cnnc23)cc1` [Example 12, N-((2,3-dihydrobenzofuran-4-yl)methyl)-8-(4-(methylsulfonyl)phenyl)-[1,2,4]triazolo[4,3-c]pyrimidin-5-amine] stands 0.0176 µM; under `c1ccc(-c2cnc(NCc3cccc4c3CCO4)n3cnnc23)cc1` [Example 13, N-((2,3-dihydrobenzofuran-4-yl)methyl)-8-phenyl-[1,2,4]triazolo[4,3-c]pyrimidin-5-amine], 0.139 µM. Under `CC(c1ccc(-c2cnc(NCc3cccc4c3CCO4)n3cnnc23)cc1)N1CCCC1` (stereo not shown) [Example 14, N-((2,3-dihydrobenzofuran-4-yl)methyl)-8-(4-(1-(pyrrolidin-1-yl)ethyl)phenyl)-[1,2,4]triazolo[4,3-c]pyrimidin-5-amine] stands 0.0274 µM; under `CN(C)S(=O)(=O)c1ccc(-c2cnc(NCc3cccc4c3CCO4)n3cnnc23)cc1` [Example 15, 4-(5-(((2,3-dihydrobenzofuran-4-yl)methyl)amino)-[1,2,4]triazolo[4,3-c]pyrimidin-8-yl)-N,N-dimethylbenzenesulfonamide], 0.0198 µM. Under `c1cncc(-c2cnc(NCc3cccc4c3CCO4)n3cnnc23)c1` [Example 16, N-((2,3-dihydrobenzofuran-4-yl)methyl)-8-(pyridin-3-yl)-[1,2,4]triazolo[4,3-c]pyrimidin-5-amine] stands 0.0604 µM. Turning to `CS(=O)(=O)Nc1ccc(-c2cnc(NCc3cccc4c3CCO4)n3cnnc23)cc1` [Example 19, N-(4-(5-(((2,3-dihydrobenzofuran-4-yl)methyl)amino)-[1,2,4]triazolo[4,3-c]pyrimidin-8-yl)phenyl)methanesulfonamide], the IC50 was determined as 0.0401 µM. For the compound `CN1CCN(c2ccc(-c3cnc(NCc4cccc5c4CCO5)n4cnnc34)cn2)CC1` [Example 20, N-((2,3-dihydrobenzofuran-4-yl)methyl)-8-(6-(4-methylpiperazin-1-yl)pyridin-3-yl)-[1,2,4]triazolo[4,3-c]pyrimidin-5-amine], the IC50 worked out at 0.0783 µM. Under `COc1ccc(-c2cnc(NCc3cccc4c3CCO4)n3cnnc23)cn1` [Example 21, N-((2,3-dihydrobenzofuran-4-yl)methyl)-8-(6-methoxypyridin-3-yl)-[1,2,4]triazolo[4,3-c]pyrimidin-5-amine] stands 0.15 µM. Under `CN(C)Cc1ccc(-c2cnc(NCc3c(F)ccc4c3CCO4)n3cnnc23)cc1` [Example 23, 8-(4-((dimethylamino)methyl)phenyl)-N-((5-fluoro-2,3-dihydrobenzofuran-4-yl)methyl)-[1,2,4]triazolo[4,3-c]pyrimidin-5-amine] stands 0.0424 µM. Under `Cc1nn(C)c(C)c1-c1cnc(NCc2cccc3c2CCO3)n2cnnc12` [Example 24, N-((2,3-dihydrobenzofuran-4-yl)methyl)-8-(1,3,5-trimethyl-1H-pyrazol-4-yl)-[1,2,4]triazolo[4,3-c]pyrimidin-5-amine] stands 0.162 µM. `Cn1cc(-c2cnc(NCc3cccc4c3CCO4)n3cnnc23)cn1` [Example 25, N-((2,3-dihydrobenzofuran-4-yl)methyl)-8-(1-methyl-1H-pyrazol-4-yl)-[1,2,4]triazolo[4,3-c]pyrimidin-5-amine]: the half-maximal inhibitory concentration (IC50) amounted to 0.406 µM. Under `CS(=O)(=O)c1ccc(-c2cnc(NCc3cccc4c3CCO4)n3cnnc23)c(F)c1` [Example 26, N-((2,3-dihydrobenzofuran-4-yl)methyl)-8-(2-fluoro-4-(methylsulfonyl)phenyl)-[1,2,4]triazolo[4,3-c]pyrimidin-5-amine] stands 0.0448 µM; under `CS(=O)(=O)c1cccc(-c2cnc(NCc3cccc4c3CCO4)n3cnnc23)c1` [Example 27, N-((2,3-dihydrobenzofuran-4-yl)methyl)-8-(3-(methylsulfonyl)phenyl)-[1,2,4]triazolo[4,3-c]pyrimidin-5-amine], 0.365 µM; under `CS(=O)(=O)c1ccc(-c2cnc(NCc3cccc4c3CCO4)n3cnnc23)cn1` [Example 28, N-((2,3-dihydrobenzofuran-4-yl)methyl)-8-(6-(methylsulfonyl)pyridin-3-yl)-[1,2,4]triazolo[4,3-c]pyrimidin-5-amine], 0.415 µM. With `O=S(=O)(c1ccc(-c2cnc(NCc3cccc4c3CCO4)n3cnnc23)cc1)C1CCNCC1` [Example 29, N-((2,3-dihydrobenzofuran-4-yl)methyl)-8-(4-(piperidin-4-ylsulfonyl)phenyl)-[1,2,4]triazolo[4,3-c]pyrimidin-5-amine], the IC50 amounted to 0.214 µM. With `Cc1nn(C)cc1-c1cnc(NCc2cccc3c2CCO3)n2cnnc12` [Example 30, N-((2,3-dihydrobenzofuran-4-yl)methyl)-8-(1,3-dimethyl-1H-pyrazol-4-yl)-[1,2,4]triazolo[4,3-c]pyrimidin-5-amine], the IC50 was found to be 0.069 µM. Regarding `Fc1ccccc1-c1cnc(NCc2cccc3c2CCO3)n2cnnc12` [Example 31, N-((2,3-dihydrobenzofuran-4-yl)methyl)-8-(2-fluorophenyl)-[1,2,4]triazolo[4,3-c]pyrimidin-5-amine], the concentration for half-maximal inhibition (IC50) was 0.0298 µM. With `Clc1ccccc1-c1cnc(NCc2cccc3c2CCO3)n2cnnc12` [Example 32, 8-(2-chlorophenyl)-N-((2,3-dihydrobenzofuran-4-yl)methyl)-[1,2,4]triazolo[4,3-c]pyrimidin-5-amine], the half-maximal inhibitory concentration (IC50) came out at 0.115 µM.

`CS(=O)(=O)Nc1ccc(-c2cnc(NCc3cccc4c3CCO4)n3cnnc23)cc1F` [Example 33, N-(4-(5-(((2,3-dihydrobenzofuran-4-yl)methyl)amino)-[1,2,4]triazolo[4,3-c]pyrimidin-8-yl)-2-fluorophenyl)methanesulfonamide]: the IC50 was found to be 0.297 µM. For the compound `OCCn1cc(-c2cnc(NCc3cccc4c3CCO4)n3cnnc23)cn1` [Example 34, 2-(4-(5-(((2,3-dihydrobenzofuran-4-yl)methyl)amino)-[1,2,4]trizaolo[4,3-c]pyrimidin-8-yl)-1H-pyrazol-1-yl)ethanol], the IC50 turned out to be 1.95 µM. Consider `CN(C)CCc1ccc(-c2cnc(NCc3cccc4c3CCO4)n3cnnc23)cc1` [Example 35, N-((2,3-dihydrobenzofuran-4-yl)methyl)-8-(4-(2-(dimethylamino)ethyl)phenyl)-[1,2,4]triazolo[4,3-c]pyrimidin-5-amine], for which the concentration for half-maximal inhibition (IC50) is 0.0334 µM.

Turning to `Cc1cc(-c2cnc(NCc3cccc4c3CCO4)n3cnnc23)cnc1N1CCN(C)CC1` [Example 36, N-((2,3-dihydrobenzofuran-4-yl)methyl)-8-(5-methyl-6-(4-methylpiperazin-1-yl)pyridin-3-yl)-[1,2,4]triazolo[4,3-c]pyrimidin-5-amine], the IC50 worked out at 0.0683 µM.

Turning to `CS(=O)(=O)c1ccc(-c2cnc(NCc3c(F)ccc4c3CCO4)n3cnnc23)cc1` [Example 37, N-((5-fluoro-2,3-dihydrobenzofuran-4-yl)methyl)-8-(4-(methylsulfonyl)phenyl)-[1,2,4]triazolo[4,3-c]pyrimidin-5-amine], the IC50 was determined as 0.0134 µM.

On to `OCCOc1ccc(-c2cnc(NCc3cccc4c3CCO4)n3cnnc23)cc1` [Example 38, 2-(4-(5-(((2,3-dihydrobenzofuran-4-yl)methyl)amino)-[1,2,4]triazolo[4,3-c]pyrimidin-8-yl)phenoxy)ethanol], for which the IC50 amounted to 0.202 µM. With `CS(=O)(=O)Nc1ccc(-c2cnc(NCc3c(F)ccc4c3CCO4)n3cnnc23)cc1F` [Example 39, N-(2-fluoro-4-(5-(((5-fluoro-2,3-dihydrobenzofuran-4-yl)methyl)amino)-[1,2,4]triazolo[4,3-c]pyrimidin-8-yl)phenyl)methanesulfonamide], the 50% inhibitory concentration (IC50) turned out to be 0.0227 µM. For `O=S(=O)(NCCO)c1ccc(-c2cnc(NCc3cccc4c3CCO4)n3cnnc23)cc1` [Example 40], the 50% inhibitory concentration (IC50) worked out at 1.34 µM. As to `O=C(c1ccc(-c2cnc(NCc3cccc4c3CCO4)n3cnnc23)cc1)N1CCNCC1` [Example 41, (4-(5-(((2,3-dihydrobenzofuran-4-yl)methyl)amino)-[1,2,4]triazolo[4,3-c]pyrimidin-8-yl)phenyl)(piperazin-1-yl)methanone], the IC50 worked out at 0.375 µM.

Regarding `CN(C)C(=O)c1ccc(-c2cnc(NCc3cccc4c3CCO4)n3cnnc23)cc1` [Example 42, 4-(5-(((2,3-dihydrobenzofuran-4-yl)methyl)amino)-[1,2,4]triazolo[4,3-c]pyrimidin-8-yl)-N,N-dimethylbenzamide], the IC50 worked out at 0.22 µM.

In the case of `CN(C)C(=O)c1cccc(-c2cnc(NCc3cccc4c3CCO4)n3cnnc23)c1` [Example 43, 3-(5-(((2,3-dihydrobenzofuran-4-yl)methyl)amino)-[1,2,4]triazolo[4,3-c]pyrimidin-8-yl)-N,N-dimethylbenzamide], the concentration for half-maximal inhibition (IC50) was determined as 0.247 µM.

As for `Fc1ccc2c(c1CNc1ncc(-c3cccnc3)c3nncn13)CCO2` [Example 44, N-((5-fluoro-2,3-dihydrobenzofuran-4-yl)methyl)-8-(pyridin-3-yl)-[1,2,4]triazolo[4,3-c]pyrimidin-5-amine], the IC50 worked out at 0.0097 µM. Under `Fc1ccc2c(c1CNc1ncc(-c3ccncc3)c3nncn13)CCO2` [Example 45, N-((5-fluoro-2,3-dihydrobenzofuran-4-yl)methyl)-8-(pyridin-4-yl)-[1,2,4]triazolo[4,3-c]pyrimidin-5-amine] stands 0.0086 µM; under `CC(c1ccc(-c2cnc(NCc3c(F)ccc4c3CCO4)n3cnnc23)cc1)N1CCCC1` (stereo not shown) [Example 46, N-((5-fluoro-2,3-dihydrobenzofuran-4-yl)methyl)-8-(4-(1-(pyrrolidin-1-yl)ethyl)phenyl)-[1,2,4]triazolo[4,3-c]pyrimidin-5-amine], 0.0048 µM; under `Fc1ccncc1-c1cnc(NCc2c(F)ccc3c2CCO3)n2cnnc12` [Example 47, N-((5-fluoro-2,3-dihydrobenzofuran-4-yl)methyl)-8-(4-fluoropyridin-3-yl)-[1,2,4]-triazolo[4,3-c]pyrimidin-5-amine], 0.0103 µM.
